ChEMBL document CHEMBL1148916, “Additional cytotoxic sterols and saponins from the starfish certonardoa semiregularis” (2004)
≈ marks a conversion by molar mass, not a printed value.

Tests used:
Type in all cases: functional
Conditions in all cases: read-out: ED50 (the source's name)
SK-MEL-2 = experiment: Cytotoxicity against human SK-MEL-2 cells
SK-OV-3 = experiment: Cytotoxicity against human SKOV3 cells
A549 = experiment: Cytotoxicity against human A549 cells
HCT-15 = experiment: Cytotoxicity against human HCT15 cells
XF498 = experiment: Cytotoxicity against human XF498 cells

## CC(/C=C/[C@@H](C)[C@H]1C[C@@H](O)[C@@H]2[C@]1(C)CC[C@@H]1[C@@]3(C)CC[C@H](O)[C@H](O)[C@@H]3[C@@H](O)C[C@]12O)CO (stereo not given in full)
SK-MEL-2
  EC50: > 30 µg/mL
SK-OV-3
  EC50: > 30 µg/mL
A549
  EC50: > 30 µg/mL
HCT-15
  EC50: > 30 µg/mL
XF498
  EC50: > 30 µg/mL

## CO[C@H]1[C@H](O[C@H]2[C@H](O[C@@H](CC[C@@H](C)[C@H]3C[C@@H](O)[C@H]4[C@@H]5C[C@H](O)[C@H]6[C@@H](O)[C@@H](O)CC[C@]6(C)[C@H]5CC[C@@]43C)C(C)C)O[C@H](CO)[C@@H]2O)OC[C@@H](O)[C@@H]1O [CERTONARDOSIDE H3]
SK-MEL-2
  EC50: 0.82 µg/mL (≈ 1.12 µM)
SK-OV-3
  EC50: 2.8 µg/mL (≈ 3.83 µM)
A549
  EC50: 3.65 µg/mL (≈ 4.99 µM)
HCT-15
  EC50: 7.2 µg/mL (≈ 9.85 µM)
XF498
  EC50: 0.52 µg/mL (≈ 0.711 µM)

## CC(C)[C@H](CC[C@@H](C)[C@H]1C[C@@H](O)[C@H]2[C@@H]3C[C@H](O)[C@H]4[C@@H](O)[C@@H](O)CC[C@]4(C)[C@H]3CC[C@@]21C)O[C@@H]1O[C@H](CO)[C@H](O)[C@H]1O [CERTONARDOSIDE H4]
SK-MEL-2
  EC50: 8.3 µg/mL (≈ 14.2 µM)
SK-OV-3
  EC50: > 30 µg/mL
A549
  EC50: > 30 µg/mL
HCT-15
  EC50: > 30 µg/mL
XF498
  EC50: > 30 µg/mL

## C[C@H](CO)CCC[C@@H](C)[C@H]1C[C@@H](O)[C@@H]2[C@]1(C)CC[C@@H]1[C@@]3(C)CC[C@H](O)[C@H](O)[C@@H]3[C@@H](O)C[C@]12O [CERTONARDOSTEROL A3]
SK-MEL-2
  EC50: 5.24 µg/mL (≈ 11.2 µM)
SK-OV-3
  EC50: 16.2 µg/mL (≈ 34.6 µM)
A549
  EC50: 11.7 µg/mL (≈ 25 µM)
HCT-15
  EC50: 20.3 µg/mL (≈ 43.3 µM)
XF498
  EC50: 18.6 µg/mL (≈ 39.7 µM)

## CC(/C=C/[C@@H](C)[C@H]1C[C@@H](O)[C@@H]2[C@]1(C)CC[C@@H]1[C@@]3(C)CC[C@H](O)[C@H](O)[C@@H]3[C@@H](O)C[C@]12O)[C@@H](C)O (stereo not given in full) [CERTONARDOSTEROL A4]
SK-MEL-2
  EC50: 5.7 µg/mL (≈ 12.2 µM)
SK-OV-3
  EC50: 16.4 µg/mL (≈ 35.1 µM)
A549
  EC50: 17 µg/mL (≈ 36.4 µM)
HCT-15
  EC50: 19.3 µg/mL (≈ 41.4 µM)
XF498
  EC50: 28.4 µg/mL (≈ 60.9 µM)

## CC(/C=C/[C@@H](C)[C@H]1C[C@@H](O)[C@H]2[C@@H]3C[C@H](O)[C@H]4[C@@H](O)[C@@H](O)CC[C@]4(C)[C@H]3CC[C@@]21C)CO (stereo not given in full) [CERTONARDOSTEROL B3]
SK-MEL-2
  EC50: 7.13 µg/mL (≈ 16.3 µM)
SK-OV-3
  EC50: 12.1 µg/mL (≈ 27.7 µM)
A549
  EC50: 12.5 µg/mL (≈ 28.6 µM)
HCT-15
  EC50: 10.4 µg/mL (≈ 23.8 µM)
XF498
  EC50: 14.7 µg/mL (≈ 33.7 µM)

## CC(C)[C@](O)(CO)CC[C@@H](C)[C@H]1C[C@@H](O)[C@H]2[C@@H]3C[C@H](O)[C@H]4[C@@H](O)[C@@H](O)CC[C@]4(C)[C@H]3CC[C@@]21C [CERTONARDOSTEROL B4]
SK-MEL-2
  EC50: 7.5 µg/mL (≈ 15.5 µM)
SK-OV-3
  EC50: 36.6 µg/mL (≈ 75.8 µM)
A549
  EC50: > 30 µg/mL
HCT-15
  EC50: > 30 µg/mL
XF498
  EC50: > 30 µg/mL

## C=C(CC[C@@H](C)[C@H]1CC(=O)[C@@H]2[C@]1(C)CC[C@@H]1[C@@]3(C)CC[C@H](O)[C@H](O)[C@@H]3[C@@H](O)C[C@]12O)[C@H](C)CO [CERTONARDOSTEROL Q1]
SK-MEL-2
  EC50: 5.57 µg/mL (≈ 11.6 µM)
SK-OV-3
  EC50: 10.9 µg/mL (≈ 22.8 µM)
A549
  EC50: 12 µg/mL (≈ 25.1 µM)
HCT-15
  EC50: 11.6 µg/mL (≈ 24.2 µM)
XF498
  EC50: 4.95 µg/mL (≈ 10.3 µM)

## CC(C)[C@@H](O)CC[C@@H](C)[C@H]1CC(=O)[C@@H]2[C@]1(C)CC[C@@H]1[C@@]3(C)CC[C@H](O)[C@H](O)[C@@H]3[C@@H](O)C[C@]12O [CERTONARDOSTEROL Q2]
SK-MEL-2
  EC50: 4.2 µg/mL (≈ 9 µM)
SK-OV-3
  EC50: 6.85 µg/mL (≈ 14.7 µM)
A549
  EC50: 6.94 µg/mL (≈ 14.9 µM)
HCT-15
  EC50: 5.82 µg/mL (≈ 12.5 µM)
XF498
  EC50: 4.1 µg/mL (≈ 8.79 µM)

## CC(C)[C@@H](O)CC[C@@H](C)[C@H]1CC(=O)[C@@H]2[C@]1(C)CC[C@@H]1[C@@]3(C)CC[C@H](O)C[C@@H]3[C@@H](O)C[C@]12O [CERTONARDOSTEROL Q3]
SK-MEL-2
  EC50: 7.3 µg/mL (≈ 16.2 µM)
SK-OV-3
  EC50: 12.3 µg/mL (≈ 27.3 µM)
A549
  EC50: 5.43 µg/mL (≈ 12 µM)
HCT-15
  EC50: 13.6 µg/mL (≈ 30.2 µM)
XF498
  EC50: 12.6 µg/mL (≈ 28 µM)

## C[C@H](CO)CCC[C@@H](C)[C@H]1CC(=O)C2=C3C[C@H](O)[C@H]4[C@@H](O)[C@@H](O)CC[C@]4(C)[C@H]3CC[C@@]21C [CERTONARDOSTEROL Q4]
SK-MEL-2
  EC50: 3.4 µg/mL (≈ 7.58 µM)
SK-OV-3
  EC50: 4.1 µg/mL (≈ 9.14 µM)
A549
  EC50: 3.8 µg/mL (≈ 8.47 µM)
HCT-15
  EC50: 4.2 µg/mL (≈ 9.36 µM)
XF498
  EC50: 2.9 µg/mL (≈ 6.46 µM)

## C=C(CC[C@@H](C)[C@H]1CC(=O)C2=C3C[C@H](O)[C@H]4[C@@H](O)[C@@H](O)CC[C@]4(C)[C@H]3CC[C@@]21C)[C@H](C)CO [CERTONARDOSTEROL Q5]
SK-MEL-2
  EC50: > 30 µg/mL
SK-OV-3
  EC50: > 30 µg/mL
A549
  EC50: > 30 µg/mL
HCT-15
  EC50: > 30 µg/mL
XF498
  EC50: > 30 µg/mL

## CC(C)[C@@H](O)CC[C@@H](C)[C@H]1CC(=O)C2=C3C[C@H](O)[C@H]4C[C@@H](O)CC[C@]4(C)[C@H]3CC[C@@]21C [CERTONARDOSTEROL Q6]
SK-MEL-2
  EC50: 0.17 µg/mL (≈ 0.393 µM)
SK-OV-3
  EC50: 0.22 µg/mL (≈ 0.509 µM)
A549
  EC50: 0.43 µg/mL (≈ 0.994 µM)
HCT-15
  EC50: 0.48 µg/mL (≈ 1.11 µM)
XF498
  EC50: 0.12 µg/mL (≈ 0.277 µM)

## CC(C)[C@@H](O)CC[C@@H](C)[C@H]1CC(=O)C2=C3C[C@H](O)[C@H]4[C@@H](O)[C@@H](O)CC[C@]4(C)[C@H]3CC[C@@]21C [CERTONARDOSTEROL Q7]
SK-MEL-2
  EC50: 4.66 µg/mL (≈ 10.4 µM)
SK-OV-3
  EC50: 6.65 µg/mL (≈ 14.8 µM)
A549
  EC50: 4.58 µg/mL (≈ 10.2 µM)
HCT-15
  EC50: 7.1 µg/mL (≈ 15.8 µM)
XF498
  EC50: 3.8 µg/mL (≈ 8.47 µM)

## COc1cccc2c1C(=O)c1c(O)c3c(c(O)c1C2=O)C[C@@](O)(C(=O)CO)C[C@@H]3O[C@H]1C[C@H](N)[C@H](O)[C@H](C)O1 [DOXORUBICIN]
SK-MEL-2
  EC50: 0.05 µg/mL (≈ 0.092 µM)
SK-OV-3
  EC50: 0.12 µg/mL (≈ 0.221 µM)
A549
  EC50: 0.04 µg/mL (≈ 0.0736 µM)
HCT-15
  EC50: 0.18 µg/mL (≈ 0.331 µM)
XF498
  EC50: 0.12 µg/mL (≈ 0.221 µM)
